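Five compound concentrations were applied to cells in 96-well plates for 48 hours; endpoints were derived by simple linear interpolation of the resulting dose-response curve. GI50 is the concentration that inhibits growth by half.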 Active and inactive are the calls of the source. No stated cut-off is given here; in the data, active = GI50 up to about 1.1 µM and inactive = higher.
Tests used:
Test in all cases: growth of human tumour cells (NCI), 48 h
M19-MEL = tested on: M19-MEL
SK-MEL-28 = tested on: SK-MEL-28
SW-620 = tested on: SW-620
COLO 205 = tested on: COLO 205
OVCAR-8 = tested on: OVCAR-8
UO-31 = tested on: UO-31
EKVX = tested on: EKVX
IGROV-1 = tested on: IGROV-1
TK-10 = tested on: TK-10
HCT-116 = tested on: HCT-116
RXF 631 = tested on: RXF 631
UACC-257 = tested on: UACC-257
U-251 = tested on: U-251
UACC-62 = tested on: UACC-62
SNB-78 = tested on: SNB-78
SF-295 = tested on: SF-295
SF-268 = tested on: SF-268
SNB-75 = tested on: SNB-75
HT-29 = tested on: HT-29
A549 = tested on: A549
RPMI-8226 = tested on: RPMI-8226
K562 = tested on: K562
DLD-1 = tested on: DLD-1
DMS-273 = tested on: DMS-273
DMS-114 = tested on: DMS-114
SR = tested on: SR
M14 = tested on: M14
HCC 2998 = tested on: HCC 2998
HCT-15 = tested on: HCT-15
Malme-3M = tested on: Malme-3M
CCRF-CEM = tested on: CCRF-CEM
HOP-92 = tested on: HOP-92
OVCAR-5 = tested on: OVCAR-5
OVCAR-3 = tested on: OVCAR-3
SK-MEL-2 = tested on: SK-MEL-2
NCI-H23 = tested on: NCI-H23
SN12C = tested on: SN12C
KM12 = tested on: KM12
SK-OV-3 = tested on: SK-OV-3
LXFL 529 = tested on: LXFL 529
MOLT-4 = tested on: MOLT-4
HOP-18 = tested on: HOP-18
NCI-H226 = tested on: NCI-H226
HL-60 = tested on: HL-60
786-0 = tested on: 786-0
XF498 = tested on: XF498
HOP-62 = tested on: HOP-62
CAKI-1 = tested on: CAKI-1
NCI-H522 = tested on: NCI-H522
SK-MEL-5 = tested on: SK-MEL-5
LOX IMVI = tested on: LOX IMVI
SF-539 = tested on: SF-539
ACHN = tested on: ACHN
KM-20L2 = tested on: KM-20L2
A498 = tested on: A498
RXF 393 = tested on: RXF 393
OVCAR-4 = tested on: OVCAR-4
SNB-19 = tested on: SNB-19
NCI-H460 = tested on: NCI-H460

CCOC(=O)/C(Br)=C1/OC(=O)c2ccccc2-c2ccccc21.CCOC(=O)/C(Br)=C1\OC(=O)c2ccccc2-c2ccccc21
GI50 (M19-MEL): 15.8 µM (inactive)
GI50 (SK-MEL-28): 18.6 µM (inactive)
GI50 (SW-620): 16.1 µM (inactive)
GI50 (COLO 205): 15.2 µM (inactive)
GI50 (OVCAR-8): 23.1 µM (inactive)
GI50 (UO-31): 39.8 µM (inactive)
GI50 (EKVX): 31.7 µM (inactive)
GI50 (IGROV-1): 18.6 µM (inactive)
GI50 (TK-10): 21.6 µM (inactive)
GI50 (HCT-116): 17.7 µM (inactive)
GI50 (RXF 631): 21.9 µM (inactive)
GI50 (UACC-257): 18.2 µM (inactive)
GI50 (U-251): 23.2 µM (inactive)
GI50 (UACC-62): 15.4 µM (inactive)
GI50 (SNB-78): 20.6 µM (inactive)
GI50 (SF-295): 21.9 µM (inactive)
GI50 (SF-268): 30.7 µM (inactive)
GI50 (SNB-75): 25.2 µM (inactive)
GI50 (HT-29): 11.3 µM (inactive)
GI50 (A549): 26.3 µM (inactive)
GI50 (RPMI-8226): 8.97 µM (inactive)
GI50 (K562): 4.3 µM (inactive)
GI50 (DLD-1): 17.9 µM (inactive)
GI50 (DMS-273): 14.7 µM (inactive)
GI50 (DMS-114): 15.4 µM (inactive)
GI50 (SR): 16 µM (inactive)
GI50 (M14): 17 µM (inactive)
GI50 (HCC 2998): 21 µM (inactive)
GI50 (HCT-15): 19.6 µM
GI50 (Malme-3M): 17.7 µM (inactive)
GI50 (CCRF-CEM): 10.9 µM (inactive)
GI50 (HOP-92): 11.8 µM (inactive)
GI50 (OVCAR-5): 20 µM (inactive)
GI50 (OVCAR-3): 18.2 µM (inactive)
GI50 (SK-MEL-2): 18.5 µM (inactive)
GI50 (NCI-H23): 21 µM (inactive)
GI50 (SN12C): 22.8 µM (inactive)
GI50 (KM12): 14.8 µM (inactive)
GI50 (SK-OV-3): 36.2 µM (inactive)
GI50 (LXFL 529): 13.6 µM (inactive)
GI50 (MOLT-4): 14.7 µM (inactive)
GI50 (HOP-18): 22 µM (inactive)
GI50 (NCI-H226): 27.3 µM (inactive)
GI50 (HL-60): 8.3 µM (inactive)
GI50 (786-0): 17.1 µM (inactive)
GI50 (XF498): 18.5 µM (inactive)
GI50 (HOP-62): 18.5 µM (inactive)
GI50 (CAKI-1): 16.4 µM (inactive)
GI50 (NCI-H522): 15.8 µM (inactive)
GI50 (SK-MEL-5): 17.5 µM (inactive)
GI50 (LOX IMVI): 16.5 µM (inactive)
GI50 (SF-539): 21.5 µM (inactive)
GI50 (ACHN): 15.7 µM (inactive)

COC(=O)c1c(-c2ccccc2)cc2c3cc(-c4ccccc4)c(C(=O)OC)n3c3ccccc3n12
GI50 (M19-MEL): > 100 µM (inactive)
GI50 (KM-20L2): > 100 µM (inactive)
GI50 (SK-MEL-28): > 100 µM (inactive)
GI50 (SW-620): > 100 µM (inactive)
GI50 (COLO 205): > 100 µM (inactive)
GI50 (OVCAR-8): > 100 µM (inactive)
GI50 (UO-31): > 100 µM (inactive)
GI50 (EKVX): > 100 µM (inactive)
GI50 (IGROV-1): > 100 µM (inactive)
GI50 (TK-10): > 100 µM (inactive)
GI50 (HCT-116): > 100 µM (inactive)
GI50 (RXF 631): > 100 µM (inactive)
GI50 (UACC-257): > 100 µM (inactive)
GI50 (U-251): > 100 µM (inactive)
GI50 (UACC-62): > 100 µM (inactive)
GI50 (SNB-78): > 100 µM (inactive)
GI50 (A498): > 100 µM (inactive)
GI50 (SF-295): > 100 µM (inactive)
GI50 (SF-268): > 100 µM (inactive)
GI50 (SNB-75): 20.1 µM (inactive)
GI50 (HT-29): > 100 µM (inactive)
GI50 (A549): > 100 µM (inactive)
GI50 (RPMI-8226): > 100 µM (inactive)
GI50 (RXF 393): > 44.8 µM (inactive)
GI50 (K562): > 100 µM (inactive)
GI50 (DLD-1): > 100 µM (inactive)
GI50 (DMS-273): 79.3 µM (inactive)
GI50 (DMS-114): > 100 µM (inactive)
GI50 (M14): > 100 µM (inactive)
GI50 (HCC 2998): > 100 µM (inactive)
GI50 (HCT-15): > 100 µM
GI50 (Malme-3M): > 100 µM (inactive)
GI50 (CCRF-CEM): > 100 µM (inactive)
GI50 (OVCAR-5): > 100 µM (inactive)
GI50 (OVCAR-3): > 100 µM (inactive)
GI50 (SK-MEL-2): > 100 µM (inactive)
GI50 (NCI-H23): > 100 µM (inactive)
GI50 (SN12C): > 100 µM (inactive)
GI50 (KM12): > 100 µM (inactive)
GI50 (SK-OV-3): > 100 µM (inactive)
GI50 (LXFL 529): > 100 µM (inactive)
GI50 (MOLT-4): > 100 µM (inactive)
GI50 (HOP-18): > 100 µM (inactive)
GI50 (NCI-H226): > 100 µM (inactive)
GI50 (HL-60): > 100 µM (inactive)
GI50 (OVCAR-4): 22.6 µM (inactive)
GI50 (786-0): > 100 µM (inactive)
GI50 (XF498): > 100 µM (inactive)
GI50 (HOP-62): > 100 µM (inactive)
GI50 (CAKI-1): > 100 µM (inactive)
GI50 (NCI-H522): > 91 µM (inactive)
GI50 (SNB-19): > 100 µM (inactive)
GI50 (NCI-H460): > 100 µM (inactive)
GI50 (SK-MEL-5): > 100 µM (inactive)
GI50 (LOX IMVI): > 100 µM (inactive)
GI50 (SF-539): > 100 µM (inactive)
GI50 (ACHN): > 100 µM (inactive)

— ChEMBL document CHEMBL1201862, “PubChem BioAssay data set” (2004)
